The source of these data is PubChem BioAssay (NCI).

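48-hour exposure; five concentrations; linearly interpolated endpoints. At the GI50, growth is halved. TGI marks complete inhibition of growth.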

Among the test systems are MALME-3M melanoma; UO-31 renal; SF-268 CNS; MOLT-4 leukemia; LOX IMVI melanoma; CCRF-CEM leukemia; RPMI-8226 leukemia; CAKI-1 renal; HT29 colon; HCT-116 colon.
Common to all, as to test: NCI tumour cell line growth inhibition, 48 h

Turning to `CC(C)Cc1ccc(C(C)CC2=CCC(CN(C)C)C2=O)cc1` (stereo not given), the TGI with MALME-3M melanoma was found to be 13.1 µM; in the assay with UO-31 renal it was 30.1 µM; in the assay on SF-268 CNS it was 30 µM; in the assay with MOLT-4 leukemia, 5.8 µM; with LOX IMVI melanoma, 9.84 µM; in the assay with CCRF-CEM leukemia it was 12.6 µM. Also, the TGI with RPMI-8226 leukemia came out at 5.24 µM; in the assay on CAKI-1 renal, 3.28 µM; in the assay on HT29 colon it was 17.5 µM; in the assay with HCT-116 colon it was 11.1 µM.

Regarding `Cn1cc(C2=C(c3cn(C)c4ccc(Cl)cc34)C(=O)NC2=O)c2ccccc21`, the GI50 in the assay on MALME-3M melanoma was 6.33 µM; in the assay on UO-31 renal, 2.54 µM; in the assay with SF-268 CNS it was 5.51 µM; in the assay on MOLT-4 leukemia it was 2.17 µM; in the assay with LOX IMVI melanoma, 2.74 µM; in the assay with CCRF-CEM leukemia it was 1.18 µM. Moreover, the GI50 was 5.68 µM with RPMI-8226 leukemia, 2.75 µM with CAKI-1 renal, 1.23 µM with HT29 colon and 1.52 µM in the assay on HCT-116 colon. Moreover, the TGI with MALME-3M melanoma was 19 µM; in the assay with UO-31 renal, 11.7 µM; with SF-268 CNS, over 25 µM; in the assay with MOLT-4 leukemia, 14.9 µM; in the assay on LOX IMVI melanoma, 11.9 µM; in the assay on CCRF-CEM leukemia, 19.2 µM. In addition, the TGI with RPMI-8226 leukemia was 17.2 µM; in the assay on CAKI-1 renal, over 23.7 µM; in the assay on HT29 colon, 8.38 µM; in the assay with HCT-116 colon, 7.42 µM.

In the case of `CC(C)(C)C(=CS(=O)/N=C/c1ccccc1)C(C)(C)C` (stereo not given), the TGI was 75.9 µM with MALME-3M melanoma; 95.7 µM in the assay with UO-31 renal; over 100 µM with SF-268 CNS; 54.3 µM with MOLT-4 leukemia; 35.4 µM with LOX IMVI melanoma; 49.8 µM with CCRF-CEM leukemia. The TGI with RPMI-8226 leukemia was 46.3 µM; with CAKI-1 renal it was over 100 µM; in the assay with HT29 colon, over 100 µM; in the assay with HCT-116 colon, over 100 µM.

Consider `Cc1cc(N(CCC#N)CCC#N)ccc1N=Nc1ccc(Br)cc1`, for which the TGI is over 100 µM in the assay with MALME-3M melanoma; over 57.6 µM with UO-31 renal; over 100 µM with SF-268 CNS; over 58.8 µM with MOLT-4 leukemia; over 47.1 µM in the assay with LOX IMVI melanoma; over 31.6 µM in the assay on CCRF-CEM leukemia. For the same compound, the TGI in the assay on RPMI-8226 leukemia is over 100 µM; with CAKI-1 renal, over 51.4 µM; in the assay on HT29 colon, over 100 µM; with HCT-116 colon, over 100 µM.

Take `Cc1nc2ccc(NC(=O)CCNC(=O)CCCc3ccc(CC(C(=O)O)C(=O)O)cc3)cc2s1`: the GI50 in the assay with MALME-3M melanoma, in the assay with UO-31 renal, in the assay on SF-268 CNS, in the assay on MOLT-4 leukemia, in the assay with LOX IMVI melanoma and in the assay on CCRF-CEM leukemia was over 100 µM each time. The GI50 in the assay with RPMI-8226 leukemia, in the assay on CAKI-1 renal, in the assay on HT29 colon and with HCT-116 colon was over 100 µM throughout. The TGI in the assay with MALME-3M melanoma, with UO-31 renal, with SF-268 CNS, with MOLT-4 leukemia, with LOX IMVI melanoma and in the assay with CCRF-CEM leukemia was over 100 µM throughout. The TGI in the assay on RPMI-8226 leukemia, in the assay on CAKI-1 renal, in the assay with HT29 colon and in the assay with HCT-116 colon was over 100 µM each time.

On to `CC1CCSC(N(C(=O)N(C)c2ccccc2)c2ccccc2)=N1` (stereo not given), for which the TGI with MALME-3M melanoma, in the assay on UO-31 renal, in the assay on SF-268 CNS, in the assay on MOLT-4 leukemia, with LOX IMVI melanoma and in the assay on CCRF-CEM leukemia was over 100 µM in each case. Besides, the TGI in the assay on RPMI-8226 leukemia, in the assay with CAKI-1 renal, with HT29 colon and with HCT-116 colon was over 100 µM in each case.

As for `CC1=Nc2ccccc2/C1=C\c1c(C)[nH]c2ccccc12`, the TGI is 30.5 µM with MALME-3M melanoma; 27.5 µM in the assay on UO-31 renal; 28.6 µM in the assay with SF-268 CNS; 40.2 µM in the assay with MOLT-4 leukemia; 62.4 µM in the assay on LOX IMVI melanoma; over 100 µM in the assay on CCRF-CEM leukemia. The TGI in the assay on RPMI-8226 leukemia was 88.1 µM; in the assay on CAKI-1 renal, 29.1 µM; with HT29 colon, 25.4 µM; in the assay with HCT-116 colon, 24.2 µM.

With `C1=C2CCCC3=Cc4ccccc4OC23Oc2ccccc21`, the GI50 was 7.17 µM in the assay with MALME-3M melanoma; 4.86 µM in the assay with UO-31 renal; 4.74 µM in the assay on SF-268 CNS; 3.66 µM in the assay on MOLT-4 leukemia; 3.88 µM with LOX IMVI melanoma; 3.47 µM in the assay on CCRF-CEM leukemia. The GI50 in the assay on RPMI-8226 leukemia is 3.38 µM; in the assay with CAKI-1 renal, 3.71 µM; in the assay with HT29 colon it was 3.52 µM; with HCT-116 colon it was 4.35 µM. Moreover, the TGI is over 100 µM with MALME-3M melanoma; over 100 µM in the assay on UO-31 renal; over 100 µM with SF-268 CNS; over 100 µM with MOLT-4 leukemia; 28 µM in the assay on LOX IMVI melanoma; 25.9 µM in the assay on CCRF-CEM leukemia. Besides, the TGI in the assay on RPMI-8226 leukemia was 15 µM; in the assay with CAKI-1 renal, over 100 µM; in the assay with HT29 colon, 17.9 µM; in the assay with HCT-116 colon, over 100 µM.

Turning to `COc1cc(NC(=O)CCSc2nc3ccc(C)cc3c(=O)n2Cc2ccccc2)cc(OC)c1OC`, the GI50 is 4.73 µM in the assay on MALME-3M melanoma; 11.6 µM with UO-31 renal; 4.22 µM in the assay on SF-268 CNS; over 100 µM in the assay with MOLT-4 leukemia; 6.4 µM with LOX IMVI melanoma; over 100 µM in the assay on CCRF-CEM leukemia. Further, the GI50 was over 100 µM in the assay on RPMI-8226 leukemia, over 100 µM in the assay with CAKI-1 renal, over 100 µM with HT29 colon and 4.35 µM in the assay on HCT-116 colon. Further, the TGI in the assay on MALME-3M melanoma is 43.4 µM; with UO-31 renal, over 100 µM; in the assay with SF-268 CNS it was 49.6 µM; in the assay on MOLT-4 leukemia it was over 100 µM; in the assay with LOX IMVI melanoma, over 100 µM; in the assay on CCRF-CEM leukemia, over 100 µM. The TGI in the assay with RPMI-8226 leukemia, in the assay with CAKI-1 renal, in the assay on HT29 colon and in the assay with HCT-116 colon was over 100 µM each time.

With `CCOC(=O)CCn1ncc(Cl)c(Cl)c1=O`, the TGI in the assay with MALME-3M melanoma was 34.4 µM; in the assay on UO-31 renal, 29.3 µM; with SF-268 CNS, 21.6 µM; with MOLT-4 leukemia, 11.7 µM; in the assay on LOX IMVI melanoma, 25.7 µM; in the assay with CCRF-CEM leukemia, 9.76 µM. The TGI in the assay on RPMI-8226 leukemia came to 15.3 µM; in the assay on CAKI-1 renal, 10.8 µM; in the assay on HT29 colon it was 14.2 µM; in the assay with HCT-116 colon it was 24.2 µM.
